This is an account of results in US5916920A, “3-substituted Bicyclo[3.1.0]hexane-6-carboxylic acids” (Eli Lilly and Company, priority 1996, dated 1999).

The subject of assay [1] is metabotropic glutamate receptors. Nature of the assay: selective displacement of 1S,3R-ACPD-sensitive [^3 H]glutamate binding to rat brain cell membranes. The settings on record: crude membranes of rat forebrain. The method, then:
The binding of [^3 H]glutamate was conducted with crude membranes of rat forebrain as described by Schoepp and True. Schoepp and True, Neuroscience Lett., 145, 100-104 (1992) and Wright et al., J. Neurochemisty 63: 938-945 (1994).

The nature of assay [2]: mouse elevated plus maze model. Type of assay: in vivo.
Assay [3] can be described thus: mouse conditioned active avoidance response model. Type of assay: in vivo. The text has this: (Pfeiffer & Jenney, Ann. N.Y. Acad. Sci., 66:[…], 1957; Maffii, J. Pharm. Pharmacol., 11: 129-139, 1959; Cook & Weidley, Ann; N.Y. Acad. Sci., 66: […], 1957; Janke, Handbook of Experimental Pharmacology, Vol. 55/I, New York: Plenum Press, 1978).

The IC50 is the concentration needed to halve the response being measured.

“Mixture of 1SR,2SR,3RS,5RS,6SR-2-amino-3-(3-phenylpropyl)bicyclo[3.1.0]-hexane-2,6-dicarboxylic acid and 1SR, 2RS, 3RS, 5RS, 6SR-2-amino-3-(3-phenylpropyl)bicyclo[3.1.0]hexane-2,6-dicarboxylic acid [Example 1]” showed an IC50 in assay [1] of 320 nM.
Turning to `Cc1cccc(C[C@@H]2C[C@H]3[C@H](C(=O)O)[C@H]3[C@]2(N)C(=O)O)c1` (relative stereo) [Example 4, 1SR,2SR,3SR,5RS,6SR-Amino-3-((3-methyl)benzyl)bicyclo[3.1.0]hexane-2,6-dicarboxylic acid], the “anxiolytic effect in the mouse elevated plus maze model” value in assay [2] is “anxiolytic effect”.
Consider `N[C@@]1(C(=O)O)[C@H](Cc2ccc(F)c(F)c2F)C[C@H]2[C@H](C(=O)O)[C@H]21` (relative stereo) [Example 25, 1SR,2SR,3SR,5RS,6SR-2-Amino-3-((2,3,4-trifluoro)benzyl)bicyclo[3.1.0]hexane-2,6-dicarboxylic acid], for which, in assay [3], the “neuroleptic properties in the mouse conditioned active avoidance response model” value is given as “neuroleptic properties”.
